IC50 and EC50 data for ten compounds are collected here from patent US8871774B2, “Inhibitors of influenza viruses replication” (priority 2010, dated 2014).

pIC50: −log10 of the molar value. Like-named read-outs stand apart in the source and are kept apart here.

Assay [1] concerns influenza A virus (A/PR/8/34). The assay is described as follows: cytopathic effect (CPE) assay, MDCK cell protection by ATP detection. It counts as cell-based. To be noted: Influenza A virus, mean IC50, MDCK cells, A/PR/8/34, 72 hours, 50% cell protection. In general terms: Protection from cytopathic effect is a common read-out in antiviral testing.
Assay [2] concerns Influenza virus, strain A/PR/8/34. Briefly: microbe, parasite or virus in culture. It counts as cell-based. To be noted: unidentified influenza virus, PR/8, read-out: bDNA EC50 (uM).
[3] abbreviates: Table 1, read-out: Flu, MDCK IC50.

For `COC(=O)[C@H]1C2CCC(CC2)[C@@H]1Nc1nc(-c2n[nH]c3ncc(Cl)cc23)ncc1F` (racemic) [Compound I-2, (+/−)-trans-(2,3)-methyl 3-((2-(5-chloro-1H-pyrazolo[3,4-b]pyridin-3-yl)-5-fluoropyrimidin-4-yl)amino)bicyclo[2.2.2]octane-2-carboxylate], the negative logarithm of the IC50 (pIC50) in assay [1] (setting [3]) is over 5.48. Also, in assay [2], the concentration giving a half-maximal response (EC50) was under 3.3 µM.

Consider `O=C(O)[C@H]1C2CCC(CC2)[C@@H]1Nc1nc(-c2n[nH]c3ncc(Cl)cc23)ncc1F` (racemic) [Compound I-6, (+/−) trans-(2S,3S)-3-((2-(5-chloro-1H-pyrazolo[3,4-b]pyridin-3-yl)-5-fluoropyrimidin-4-yl)amino)bicyclo[2.2.2]octane-2-carboxylic acid], for which, in assay [1] (setting [3]), the negative logarithm of the IC50 (pIC50) was over 5.48. Further, the concentration for a half-maximal effect (EC50) in assay [2] was under 3.3 µM.

Consider `O=C(O)[C@H]1C2CCC(CC2)[C@@H]1Nc1nc(-c2n[nH]c3ncccc23)ncc1F` (racemic) [Compound I-11, (+/−)-trans-3-((5-fluoro-2-(1H-pyrazolo[3,4-b]pyridin-3-yl)pyrimidin-4-yl)amino)bicyclo-[2.2.2]octane-2-carboxylic acid], for which the pIC50 in assay [1] (setting [3]) was over 5.48. Besides, the concentration giving a half-maximal response (EC50) in assay [2] is under 3.3 µM.

In the case of `C[C@]1(C(=O)O)CCCC[C@@H]1Nc1nc(-c2n[nH]c3ncc(Cl)cc23)ncc1F` (racemic) [Compound I-13, (+/−)-2-((2-(5-chloro-1H-pyrazolo[3,4-b]pyridin-3-yl)-5-fluoropyrimidin-4-yl)amino)-1-methylcyclohexanecarboxylic acid], the negative logarithm of the IC50 (pIC50) in assay [1] (setting [3]) is over 5.48. Moreover, in assay [2], the EC50 is under 3.3 µM.

With `COC(=O)[C@H]1C2CCC(CC2)[C@@H]1Nc1nc(-c2n[nH]c3ncc(F)cc23)ncc1F` (racemic) [Compound I-28, (+/−) trans-methyl 3-(5-fluoro-2-(5-fluoro-1H-pyrazolo[3,4-b]pyridin-3-yl)pyrimidin-4-ylamino)bicyclo[2.2.2]octane-2-carboxylate], the pIC50 in assay [1] (setting [3]) was over 5.48. Further, the concentration giving a half-maximal response (EC50) in assay [2] was under 3.3 µM.

Regarding `COC(=O)[C@H]1C2CCC(CC2)[C@@H]1Nc1nc(-c2n[nH]c3ncc(F)cc23)ncc1Cl` (racemic) [Compound I-32, (+/−)-trans-(2,3)-methyl 3-((5-chloro-2-(5-fluoro-1H-pyrazolo[3,4-b]pyridin-3-yl)pyrimidin-4-yl)amino)bicyclo[2.2.2]octane-2-carboxylate], the pIC50 in assay [1] (setting [3]) was over 5.48. Also, the EC50 in assay [2] is under 3.3 µM.

In the case of `O=C(O)[C@H]1C2CCC(CC2)[C@@H]1Nc1nc(-c2n[nH]c3ncc(F)cc23)ncc1Cl` (racemic) [Compound I-33, (+/−)-trans-(2,3)-3-((5-chloro-2-(5-fluoro-1H-pyrazolo[3,4-b]pyridin-3-yl)pyrimidin-4-yl)amino)bicyclo[2.2.2]octane-2-carboxylic acid], the pIC50 in assay [1] (setting [3]) is over 5.48. The concentration giving a half-maximal response (EC50) in assay [2] is under 3.3 µM.

Regarding `COC(=O)[C@H]1C2CCCC(CC2)[C@@H]1Nc1nc(-c2n[nH]c3ncc(F)cc23)ncc1F` (mixture of isomers) [Compound I-36, (+/−)-methyl 7-(5-fluoro-2-(5-fluoro-1H-pyrazolo[3,4-b]pyridin-3-yl)pyrimidin-4-ylamino)bicyclo[3.2.2]nonane-6-carboxylate], in assay [1] (setting [3]), the pIC50 is over 5.48. Moreover, the half-maximal effective concentration (EC50) in assay [2] was under 3.3 µM.

As for `O=C(O)[C@H]1C2CCCC(CC2)[C@@H]1Nc1nc(-c2n[nH]c3ncc(F)cc23)ncc1F` (mixture of isomers) [Compound I-37, (+/−)-7-(5-fluoro-2-(5-fluoro-1H-pyrazolo[3,4-b]pyridin-3-yl)pyrimidin-4-ylamino)bicyclo[3.2.2]nonane-6-carboxylic acid], the pIC50 in assay [1] (setting [3]) was over 5.48. Besides, the EC50 in assay [2] was under 3.3 µM.

Take `COC(=O)[C@H]1C2CCC(CC2)C1Nc1ccnc(-c2n[nH]c3ncc(F)cc23)n1` (mixture of isomers) [Compound I-42, (+/−)-trans-methyl-3-((2-(5-fluoro-1H-pyrazolo[3,4-b]pyridin-3-yl)pyrimidin-4-yl)amino)bicyclo[2.2.2]octane-2-carboxylate]: the negative logarithm of the IC50 (pIC50) in assay [1] (Table 2, read-out: Flu MDCK IC50) was over 5.48. In assay [2], the EC50 was under 3.3 µM.

As usually defined, the pIC50 is −log10 of the IC50, conventionally taken in molar units. Usually EC50 stands for the concentration at which the effect is half-maximal.
